Publication PMC4998957 (Nature, 2016)

Key:
[1] = biological target: CAHexamer (Human immunodeficiency virus type 1 group M subtype B, UniProt P12493, A146C/E177C/M317A/W316A); type: binding, HIV-1
[2] = biological target: CAHexamer (disulfide-stabilised HIV-1 capsid hexamer) (Human immunodeficiency virus type 1 group M subtype B, UniProt P12493, A146C/E177C/M317A/W316A); type: binding
[3] = biological target: disulfide-stabilised HIV-1 capsid protein hexamer (CA_(Hexamer)) R18G (HIV-1); experiment: cross-linking
[4] = test system: HIV-1 capsid cores; experiment: Endogenous reverse transcription; type: biochemical; settings: DNase I and RNase A 100 μg/ml, Benzonase 250 U/ml, 100 μM each dNTP, 16 h

For `Nc1ccn([C@H]2C[C@H](O)[C@@H](COP(=O)(O)OP(=O)(O)OP(=O)(O)O)O2)c(=O)n1` [dCTP], the “on-rate (kon)” value [1] was greater than 2e+08 M⁻¹ s⁻¹, the “half life of complex” value ([1]; equivalent of the off-rate) was 0.058 s and the off-rate ([1]; fluorescent dCTP displaced with excess unlabeled dCTP (20 µM)) was greater than 12 s⁻¹.

For `Cc1cn([C@H]2C[C@H](O)[C@@H](COP(=O)(O)OP(=O)(O)OP(=O)(O)O)O2)c(=O)[nH]c1=O` [dTTP], the “effect of 1 mM (physiological) inorganic phosphate on hexamer binding” value ([2]; 2 nM fluorescein-labelled dTTP, 1 mM inorganic phosphate) was “no significant effect” and the “comparison of affinity of ribose and deoxyribose nucleoside triphosphates” value ([2]; titration of CAHexamer into labelled nucleotides) was “same affinity”.

In the case of “disulfide-stabilised HIV-1 capsid protein hexamer (CA_(Hexamer)) R18G (natural protein)”, the stoichiometry N [3] is reported as 6.

B1: RNase A: nuclease (protein, UniProt P61823 27-150, looked up)
Ribonuclease pancreatic: KETAAAKFERQHMDSSTSAASSSNYCNQMMKSRNLTKDRCKPVNTFVHESLADVQAVCSQKNVACKNGQTNCYQSYSTMSITDCRETGSSKYPNCAYKTTQANKHIIVACEGNPYVPVHFDASV
With B1 the “effect of nucleases on encapsidated reverse transcription” value [4] was “failed to prevent”.
